Assay results from patent US20210017607A1, “Methods of Predicting Responsiveness to Cancer Therapies” (The University of Chicago, priority 2019, published 2021).

Legend:
[1] = test system: Myc-CAP (STING^lo) cells; test: p-γH2AX foci (DNA DSBs) by confocal microscopy; type: cell-based, mouse
From the text: FIGS. 29A-29M. PARPi alone induces DNA DSBs, but not apoptosis even in combination with PI3Ki in Myc-CAP (STING^lo) cancer cells; PARPi/PI3Ki combination induces intracellular DNA DSBs and proportionate release of MV surface-associated DNA DSBs from B6-Myc (STINGhi) cancer cells without affecting cellular viability; PARPi/PI3K treatment activates tumor-cell extrinsic cGAS/STING pathway within TAMs in vivo via MV surface-associated DNA DSBs released from tumor cells. Myc-CAP cancer cells were treated with the indicated drugs singly or in combination for 36 hours. (29A) Cells were stained with anti-mouse specific p-γH2AX antibody and a fluorescently labeled secondary antibody for determination of DNA DSBs, which were quantified by confocal microscopy. (29B) Protein extracts from cells in 29A were analyzed for the indicated pharmacodynamic biomarkers by western blotting; (29C) Annexin V-PI staining was done to assess frequency of live cells (Annexin V^− PI^−) following drug treatment. (29D) Ultracentrifugation was utilized to purify microvesicles (MVs) from supernatants in treatment groups in (29A) and associated DNA DSBs was quantified by Nanodrop®. Independent experiments n=2. (29E) Ultracentrifugation was utilized to purify MVs from supernatants in indicated treatment groups in FIG. 17A, and associated DNA DSBs were quantified by Nanodrop®; n=2 independent experiments. […]

[2] = test system: B6-Myc (STING^hi) tumors; test: B6-Myc syngeneic tumor growth; type: in vivo, mouse; settings: immunocompetent syngeneic mice
From the text: Tumor volume curves for duration of treatment are shown. […] Data are represented relative to CD45+ immune cells.
Tumor volume curves for duration of treatment are shown.

[3] = test system: PTEN/p53-deficient GEMM tumors; test: PTEN/p53-deficient GEMM in vivo immune profiling; design: species or system mouse; settings: for CD4 and CD8 T-cell infiltration / Gr-MDSC and Tregs: copanlisib 14 mg/kg/day every alternate day, 4 weeks
Description: FIGS. 48A and 48B. […] PTEN/p53-deficient GEMM mice with established tumors were treated with DMXAA every other day for 14 days. Tumors were harvested and subjected to flow cytometry for detection of the indicated markers. (48A) CD8 infiltration; (48B) M1/M2 ratio of F4/80^+ cells where M1 are defined as MHC-II^+ and M2 cells are MHC-II^−. The frequency of Gr-MDSCs (Ly6C^−Ly6G^+) and surface expression of V-domain Ig suppressor of T cell activation (VISTA) and PD-L1 on Gr-MDSCs are shown.
FIGS. 71A and 71B. […] PTEN/p53-deficient GEMM mice (n=2/group) with established tumors were treated with copanlisib (14 mg/kg/day, every alternate day) for 4 weeks. Tumors were collected and analyzed for changes in global immune infiltrates, shown clockwise from twelve o'clock: CD4+, CD8+, CD19+, F4/80+, CD11c+, Mo-MDSC, Gr-MDSC, neutrophils (71A) and Treg frequency (71B) by flow cytometry. n=2 mice per arm.
Flow Cytometry. Murine tumors: Murine tumors were processed into single cell suspensions via gentle mechanical dissociation in 6 well plates containing 1 mL of 10% RPMI media supplemented with 10% fetal bovine serum, 1% penicillin-streptomycin and 2% L-glutamine. Cell suspensions were centrifuged at 500×g for 5 minutes at 4° C. and were passed through a 70-micron mesh, prior to re-suspension in FACS buffer (1×PBS containing 0.5% FBS and 0.01% sodium azide). For the stain, one million cells resuspended in 1×FACS buffer, were incubated with titrated concentrations of anti-mouse antibodies (Biolegend®), namely, CD45, CD11b, CD11c, CD19, F480,Ly6G, Ly6C, PD-L1, VISTA, I-A^e/IA^b, H-2K^b, CD3, CD4, CD8, 4-1BB, ICOS, and PD-1. Incubation with antibodies was done at 4° C. for 30-40 minutes. Following staining, cells were washed twice with 1× FACS buffer and fixed with 300 microliters of 4% paraformaldehye (Fisher Scientific®). Intracellular stains were done following fixation and permeabilization by staining with anti-mouse FOXP3 (Biolegend®) as per manufacturer's protocol. Analysis of cellular stains were done using BD instrument LSR 4-15 Fortessa™. Data files collected using BDFACSDIVA software were analyzed using FlowJo® software (Tree Star).

[4] = DMXAA every other day for 14 days

Nc1cc(C(F)(F)F)c(-c2cc(N3CCOCC3)nc(N3CCOCC3)n2)cn1 [buparlisib]
DNA damage on addition to rucaparib, relative to rucaparib alone [1]: did not further increase DNA damage

CNCc1ccc(-c2[nH]c3cc(F)cc4c3c2CCNC4=O)cc1 [rucaparib]
DNA DSBs (number of p-γH2AX foci) ([1]; 36 hours): increase in DNA DSBs | tumor growth response [2]: de novo resistance

COc1c(OCCCN2CCOCC2)ccc2c1N=C(NC(=O)c1cnc(N)nc1)N1CCN=C21 [copanlisib]
CD4 and CD8 T-cell infiltration [3]: striking increase | Gr-MDSC and Tregs [3]: depletion | CD4 and CD8 T-cell infiltration ([3]; listed as Copanlisib): increases CD4 and CD8 T-cell infiltration | Gr-MDSC and Tregs ([3]; listed as Copanlisib): decreases Gr-MDSC and Tregs

Cc1ccc2c(=O)c3cccc(CC(=O)O)c3oc2c1C [DMXAA, 5,6-Dimethylxanthenone-4-acetic Acid]
CD8 T cell infiltration [3, 4]: increases CD8 T cell infiltration | myeloid immunosuppression [3, 4]: relieves myeloid immunosuppression | MDSC infiltration ([3]; DMXAA, PTEN/p53 GEMM mice): decreased MDSC infiltration | VISTA and PD-L1 checkpoint expression on MDSCs ([3]; DMXAA, PTEN/p53 GEMM mice): reduction | myeloid reprogramming and Type I interferon production within the TME ([3]; Myc-CAP-PTEN knockout and PTEN/p53-deficient GEMM tumors): myeloid reprogramming and Type I interferon production | TIL exhaustion markers ([3]; after DMXAA): decreased 4-1BB, decreased ICOS and increased PD-1 | tumor growth response [2]: phenocopied
